Experimental data taken from patent publication US20090255440A1, “Benzothioxanthene dyes with improved application and toxicological properties” (Clariant International Ltd., priority 2008, published 2009).

Columns and labels:
[1] = system: Salmonella typhimurium Strain TA98; assay: Ames test for mutagenity (OECD 471); format: cell-based
Description: Due to the availability of different grades of Solvent Orange 63 for the corrosion tests, we decided to submit them all to an Ames test, one of several genotoxicity assays for the assessment of product safety.
The Ames test is a screening for the mutagenic effect of substances on microorganisms, cells and tissue cultures and therefore their potential carcinogenic effect. This relies on the observation that the most common cause of cancer is somatic mutations brought about by DNA damage. Chemicals that damage bacterial DNA, and induce mutations, are therefore likely to cause mutations in mammalian cells. Assay is done using bacteria, which gives fast and relatively cheap results and avoids the controversial tests on animals.
The strains used are among those recommended by OECD 471: Salmonella typhimurium and Escherichia coli.
Solvent Orange 63 as prepared above was subjected to Ames test for mutagenity. The strains used are among those recommended by OECD 471: Salmonella typhimurium and E. coli.

[2] = LLNA test for skin sensitization (OECD Guideline 429); format: in vivo; settings: OECD Guideline 429, suitable vehicle, for example acetone:olive oil (4+1)
Description: We further submitted the same samples to a LLNA screening, in order to assess the potential skin sensitization properties of the product.
The Local Lymph Node Assay (LLNA) is an alternative to the guinea pig sensitization test which is employed by the pharmaceutical, chemical, consumer product and cosmetic industries to identify and characterize substances with immunotoxic properties.
Solvent Orange 63 as prepared above was subjected to LLNA test for skin sensitization, according to OECD Guideline 429 in suitable vehicle, for example acetone:olive oil (4+1).

[3] = in the presence of S9 mix (metabolic activation)

Structure (SMILES)	mutagenic to Salmonella typhimurium Strain TA98 [1, 3]	skin sensitization (LLNA) [2]	mutagenic to Salmonella typhimurium Strain TA98 ([1]; with or without liver microsomal activation (S9 mix))
O=c1c2ccccc2c2ccc3sc4ccccc4c4ccc1c2c34 [Solvent Orange 63 from Sample B, C.I. Solvent Orange 63]	not mutagenic	not skin sensitizers	
O=c1c2ccccc2c2ccc3sc4ccccc4c4ccc1c2c34 [Solvent Orange 63 from Sample D, C.I. Solvent Orange 63]		skin sensitizers	mutagenic
O=c1c2ccccc2c2ccc3sc4ccccc4c4ccc1c2c34 [Solvent Orange 63 from Sample A, C.I. Solvent Orange 63]	not mutagenic	not skin sensitizers	
O=c1c2ccccc2c2ccc3sc4ccccc4c4ccc1c2c34 [Solvent Orange 63 from Sample C, C.I. Solvent Orange 63]	not mutagenic	skin sensitizers	
